In assay [1] the test system is Streptococcus faecalis. The experiment in a line: Microtiter dilution MIC, Streptococcus faecalis. It counts as cell-based. The following applies: Enterococcus faecalis; Mueller-Hinton broth, 37° C., 16-24 hours; read-out: Minimal Inhibitory Concentration. As to the method:
(§1) The compounds of the present invention and their pharmaceutically acceptable salts are useful as antimicrobial agents. The antimicrobial activity of the representative examples of compounds in accordance with the present invention against five species of gram-negative bacteria, seven species of gram-positive bacteria, four species of yeast, and two species of fungi were determined using the microtiter dilution technique. This method is described by T. B. Conrath, "Handbook of Microtiter Procedures," Dynatech Corp., Cambridge, Mass., USA (1972); and T. L. Gavan et al, "Microdilution Test Procedures," in Manual of Clinical Microbiology, E. H. Lennette, Ed., American Soc. for Microbiol., Washington, D.C., U.S.A. (1980).
(§2) Each agent is suspended in a nonaqueous solvent for several minutes to sterilize the compound or, if the compound is completely soluble in water, the aqueous solution is sterilized by passage through a 0.2-0.45 micrometer membrane filter.
(§3) Each well of a sterile 96-well microdilution tray is filled under aseptic conditions with 0.1 ml of Mueller-Hinton broth (for antibacterial tests), or yeast extract-peptone-dextrose or buffered supplemented yeast nitrogen base (for tests with yeasts or fungi).
(§4) […] of the test compound solution is added to each of the eight wells in the first row of the tray. A microdilutor apparatus is used to simultaneously mix the contents of these wells and to transfer aliquots to each succeeding row of cells to obtain a range of serially diluted solutions. The last row of wells is untreated and serves as a control.
(§5) Each well containing broth and test compound is inoculated with about ten microliters of inoculum of the test microorganism. One well in the last row of wells (which is free of test compound) is not inoculated and is used as a sterility control The trays are sealed and incubated at 37° C. for 16-24 hours (for bacteria) or at 28° C. for 36-48 hours (yeasts or fungi). During incubation, the inoculated medium is shaken at 100-140 rpm to increase contact between the microorganism cells and test compounds.
(§6) After the incubation period, each plate is evaluated by determining the lowest concentration of test compound required to inhibit the growth of the microorganism and recorded as a minimal inhibitory concentration (MIC).

Assay [2] deals with Saccharomyces cerevisiae. The experiment in a line: Microtiter dilution MIC, Saccharomyces cerevisiae. Type of assay: cell-based. To be noted: yeasts or fungi, 28° C., 36-48 hours, read-out: Minimal Inhibitory Concentration. As to the method:
as §1, §2, §3, §4, §5, §6

In assay [3] the test system is Schizosaccharomyces pombe. The experiment in a line: Microtiter dilution MIC, Schizosaccharomyces pombe. It counts as cell-based. To be noted: yeasts or fungi, 28° C., 36-48 hours, read-out: Minimal Inhibitory Concentration. The procedure:
as §1, §2, §3, §4, §5, §6

In assay [4] the test system is Rhizopus japonicus. The experiment in a line: Microtiter dilution MIC, Rhizopus japonicus. The following applies: yeasts or fungi, 28° C., 36-48 hours, read-out: Minimal Inhibitory Concentration. It counts as cell-based. As to the method:
as §1, §2, §3, §4, §5, §6

Assay [5] deals with Pseudomonas aeruginosa. The experiment in a line: Microtiter dilution MIC, Pseudomonas aeruginosa. It counts as cell-based. The following applies: Mueller-Hinton broth, 37° C., 16-24 hours, read-out: Minimal Inhibitory Concentration. The procedure:
as §1, §2, §3, §4, §5, §6

Assay [6] concerns Bacillus megaterium. The experiment in a line: Microtiter dilution MIC, Bacillus megaterium. Type of assay: cell-based. The following applies: Priestia megaterium; Mueller-Hinton broth, 37° C., 16-24 hours; read-out: Minimal Inhibitory Concentration. The procedure:
as §1, §2, §3, §4, §5, §6

For assay [7], the system named is Streptococcus pneumoniae. The experiment in a line: Microtiter dilution MIC, Streptococcus pneumoniae. It counts as cell-based. To be noted: Mueller-Hinton broth, 37° C., 16-24 hours, read-out: Minimal Inhibitory Concentration. The procedure:
as §1, §2, §3, §4, §5, §6

The subject of assay [8] is Mucor paraciticus. The experiment in a line: Microtiter dilution MIC, Mucor paraciticus. It counts as cell-based. To be noted: yeasts or fungi, 28° C., 36-48 hours, read-out: Minimal Inhibitory Concentration. As to the method: as §1, §2, §3, §4, §5, §6
In assay [9] the test system is Bacillus cereus. The experiment in a line: Microtiter dilution MIC, Bacillus cereus. It counts as cell-based. The following applies: Mueller-Hinton broth, 37° C., 16-24 hours, read-out: Minimal Inhibitory Concentration. As to the method:
as §1, §2, §3, §4, §5, §6

The subject of assay [10] is Streptococcus pyogenes. The experiment in a line: Microtiter dilution MIC, Streptococcus pyogenes. It counts as cell-based. The following applies: Mueller-Hinton broth, 37° C., 16-24 hours, read-out: Minimal Inhibitory Concentration. As to the method:
as §1, §2, §3, §4, §5, §6

For assay [11], the system named is Micrococcus luteus. The experiment in a line: Microtiter dilution MIC, Micrococcus luteus. It counts as cell-based. The following applies: Mueller-Hinton broth, 37° C., 16-24 hours, read-out: Minimal Inhibitory Concentration. The procedure:
as §1, §2, §3, §4, §5, §6

Assay [12] relates to Escherichia coli (PD-04863). The experiment in a line: Microtiter dilution MIC, Escherichia coli (PD-04863). It counts as cell-based. The following applies: Mueller-Hinton broth, 37° C., 16-24 hours, read-out: Minimal Inhibitory Concentration. The procedure: as §1, §2, §3, §4, §5, §6
In assay [13] the test system is Torulopsis albida. The experiment in a line: Microtiter dilution MIC, Torulopsis albida. To be noted: Naganishia albida; yeasts or fungi, 28° C., 36-48 hours; read-out: Minimal Inhibitory Concentration. Type of assay: cell-based. The procedure: as §1, §2, §3, §4, §5, §6
The test system of assay [14] is P388 leukemia cell line. The experiment in a line: In vivo antineoplastic activity against transplanted P388 leukemia in mice. To be noted: Days 1-9. As to the method: The in vivo antineoplastic activity of representative compounds of the present invention against the transplanted P388 leukemia cell line in mice was determined in accordance with the protocol given in Geran et al, cited above. The mice were infected intraperitoneally on Day 0 and then administered the indicated doses of the test compounds on Days 1-9.

Assay [15] concerns Alcaligenes viscolactis. The experiment in a line: Microtiter dilution MIC, Alcaligenes viscolactis. It counts as cell-based. To be noted: Mueller-Hinton broth, 37° C., 16-24 hours, read-out: Minimal Inhibitory Concentration. The procedure:
as §1, §2, §3, §4, §5, §6

Assay [16] relates to Staphylococcus aureus. The experiment in a line: Microtiter dilution MIC, Staphylococcus aureus. It counts as cell-based. The following applies: Mueller-Hinton broth, 37° C., 16-24 hours, read-out: Minimal Inhibitory Concentration. As to the method: as §1, §2, §3, §4, §5, §6
Assay [17] deals with Salmonella typhimurium. The experiment in a line: Microtiter dilution MIC, Salmonella typhimurium. Type of assay: cell-based. The following applies: Salmonella enterica, Mueller-Hinton broth, 37° C., 16-24 hours, read-out: Minimal Inhibitory Concentration. As to the method: as §1, §2, §3, §4, §5, §6
The test system of assay [18] is L1210 murine leukemia cell line. The experiment in a line: Cytotoxic activity against L1210 murine leukemia in vitro. It counts as cell-based. To be noted: Mus musculus, 50% inhibition of growth, duplicate tests. The procedure: The antineoplastic activities of representative compounds of the present invention against the L1210 murine leukemia cell line in vitro were determined using the methods detailed by R. I. Geran et al, "Protocols for Screening Chemical Agents and Natural Products Against Animal Tumors and Other Biological Systems," 3rd Edition, Cancer Chemotherapy Reports, Part 3, Vol. 3, pages 1-87 (1972) which is incorporated herein by reference.
The IC50 values are the concentration of compound required to produce 50% inhibition of growth of the cell line.

Assay [19] relates to Rhodotorula aurantiaca. The experiment in a line: Microtiter dilution MIC, Rhodotorula aurantiaca. It counts as cell-based. The following applies: Buckleyzyma aurantiaca; yeasts or fungi, 28° C., 36-48 hours; read-out: Minimal Inhibitory Concentration. As to the method: as §1, §2, §3, §4, §5, §6
Assay [20] deals with Branhamella catarrhalis. The experiment in a line: Microtiter dilution MIC, Branhamella catarrhalis. Type of assay: cell-based. The following applies: Moraxella catarrhalis; Mueller-Hinton broth, 37° C., 16-24 hours; read-out: Minimal Inhibitory Concentration. The procedure: as §1, §2, §3, §4, §5, §6

In brackets after ≈: the same amount, converted by molar mass. Where only a bound is given, the exact number is not on record here.

`COC(=O)c1ccc(O)c2nc3c(C=O)c(O)c(C)c(O)c3nc12` [Example 3, 6-formyl-4,7,9-trihydroxy-8-methyl-1-phenazinecarboxylic acid, methyl ester]: the MIC was 1000 µg/mL (≈ 3050 µM) in assay [1]; more than 1000 µg/mL in [2]; more than 1000 µg/mL in assay [3]; more than 1000 µg/mL in assay [4]; more than 1000 µg/mL in [5]; 1000 µg/mL (≈ 3050 µM) in assay [6]. Besides, the MIC is less than 0.46 µg/mL in assay [7]; 1000 µg/mL (≈ 3050 µM) in [8]; 333 µg/mL (≈ 1010 µM) in [9]; 111 µg/mL (≈ 338 µM) in assay [10]; 111 µg/mL (≈ 338 µM) in [11]; more than 1000 µg/mL in [12]. The MIC in assay [13] is 1000 µg/mL (≈ 3050 µM); in [15], 333 µg/mL (≈ 1010 µM); in assay [16], more than 1000 µg/mL; in assay [17], 1000 µg/mL (≈ 3050 µM); in assay [19], more than 1000 µg/mL; in assay [20], 111 µg/mL (≈ 338 µM). For the same compound, the “% T/C” value in assay [14] (3.12 mg/kg/injection) was 119%; in [14] (6.25 mg/kg/injection), 130%; in assay [14] (12.5 mg/kg/injection), 149%; in assay [14] (25 mg/kg/injection) it was “Toxic”. This compound also registered a half-maximal inhibitory concentration (IC50) in assay [18] of 0.17 µg/mL (≈ 0.518 µM).
On to `COC(=O)c1ccc(O)c2nc3c(C=NCCN(C)C)c(O)c(C)c(O)c3nc12` [Example 5, 6-[[[2-(dimethylamino)ethyl]imino]methyl]-4,7,9-trihydroxy-8-methyl-1-phenazinecarboxylic acid, methyl ester], for which the MIC in [1] is 12.3 µg/mL (≈ 30.9 µM); in assay [2], 111 µg/mL (≈ 279 µM); in [3], 37 µg/mL (≈ 92.9 µM); in assay [4], 111 µg/mL (≈ 279 µM); in [5], 111 µg/mL (≈ 279 µM); in [6], 4.1 µg/mL (≈ 10.3 µM). The MIC in [7] was less than 0.46 µg/mL; in assay [8] it was 37 µg/mL (≈ 92.9 µM); in assay [9] it was 1.4 µg/mL (≈ 3.51 µM); in assay [10] it was 4.1 µg/mL (≈ 10.3 µM); in assay [11], 4.1 µg/mL (≈ 10.3 µM); in assay [12], 12.3 µg/mL (≈ 30.9 µM). Moreover, the MIC in assay [13] was determined as 333 µg/mL (≈ 836 µM); in assay [15], 4.1 µg/mL (≈ 10.3 µM); in assay [16], 12.3 µg/mL (≈ 30.9 µM); in assay [17] it was 12.3 µg/mL (≈ 30.9 µM); in assay [19], 111 µg/mL (≈ 279 µM); in [20], 1.4 µg/mL (≈ 3.51 µM). Further, the “% T/C” value came out at 104% in assay [14] (37.5 mg/kg/injection), 113% in assay [14] (75 mg/kg/injection) and 137% in assay [14] (150 mg/kg/injection). For the same compound, the IC50 in [18] was 0.17 µg/mL (≈ 0.427 µM).
For `Cc1c(O)c(C=NCCN(C)C)c2nc3c(O)ccc(C(=O)NCCN(C)C)c3nc2c1O` [Example 7, N-[2-(dimethylamino)ethyl]-6-[[[2-(dimethylamino)ethyl]imino]methyl]-4,7,9-trihydroxy-8-methyl-1-phenazinecarboxamide], the MIC in assay [1] is 1000 µg/mL (≈ 2200 µM); in assay [2], 1000 µg/mL (≈ 2200 µM); in assay [3], 111 µg/mL (≈ 244 µM); in [4] it was 333 µg/mL (≈ 733 µM); in assay [5] it was less than 1000 µg/mL; in assay [6], 333 µg/mL (≈ 733 µM). Besides, the MIC in assay [7] is 37 µg/mL (≈ 81.4 µM); in [8], 333 µg/mL (≈ 733 µM); in [9] it was 111 µg/mL (≈ 244 µM); in [10], 111 µg/mL (≈ 244 µM); in [11] it was 37 µg/mL (≈ 81.4 µM); in assay [12] it was 111 µg/mL (≈ 244 µM). Besides, the MIC in [13] stood at 1000 µg/mL (≈ 2200 µM); in assay [15], 4.1 µg/mL (≈ 9.02 µM); in assay [16] it was 333 µg/mL (≈ 733 µM); in assay [17] it was 333 µg/mL (≈ 733 µM); in [19], 111 µg/mL (≈ 244 µM); in assay [20], 12.3 µg/mL (≈ 27.1 µM). The “% T/C” value in [14] (25 mg/kg/injection) is 126%; in [14] (50 mg/kg/injection), 140%; in assay [14] (100 mg/kg/injection) it was 152%; in assay [14] (200 mg/kg/injection), 166%. For the same compound, in assay [18], the midpoint of inhibition, the IC50, lay at 0.63 µg/mL (≈ 1.39 µM).

One may read the IC50 as the concentration needed to halve the response being measured.

(Values after patent US4738929A, “Purified culture of streptomyces galanosa” (Warner-Lambert Company, priority 1986, dated 1988).)
